Experimental data: US20040266811A1, “Methods for inducing regeneration, remyelination, and hypermyelination of nervous tissue” (priority 2002, published 2004)
“Also recorded” adds a separate entry of the source.

Experiments:
DRG explants = assay: DRG explant neurite outgrowth with anti-NGF neutralizing antibodies or MEK1 inhibitor; assay type: cell-based, C57B1/6 mice
Procedure: (A) DRGs were prepared and cultured as above, except that either the MEK1 inhibitor, PD 098059, or NGF-neutralizing antibodies were included in cultures treated with either NGF or GM-284. Maximal response was determined to be the extent of neurite outgrowth when DRGs were cultured in NGF alone (spotted bars) or in 1 μM GM-284 (striped bars). As indicated, DRGs were treated with either NGF or GM-284, in the presence of either 0.25 mg/ml anti-NGF neutralizing antibodies or PD 098059. […] DRGs were treated with 100 ng/ml NGF or 1 μM GM-284, for 30 min or 4 h, as indicated, and the detergent lysates were prepared and immunoblotted with anti-phospho-Erk monoclonal antibody. The p42 and p44 bands are indicated by arrowheads.
Explanted DRG ganglia were dissected from P1 to P3 C57B1/6 mice, as previously described (Weinstein et al., Targeted expression of an oncogenic adaptor protein v-Crk potentiates axonal growth in dorsal root ganglia and motor neurons in vivo. Brain Res. Dev. Brain Res., 116:29-39, 1999). Briefly, DRGs were dissected and placed in ice-cold PBS containing 2% glucose, then transferred onto polyornithine/laminin-coated tissue culture plates (Biocoat, Becton Dickinson Laboratories) in DMEM-plating medium overnight. The plating medium consisted of Dulbecco's minimal essential plating medium (DMEM) supplemented with 10% fetal calf serum (FCS; Hyclone), 0.6% glucose, 2 mM glutamine, 100 U/ml penicillin, 100 μg/ml streptomycin, and 20 mM HEPES. […] For experiments employing anti-NGF neutralizing antibodies, cultures were incubated with […] anti-NGF antiserum, and replaced every two days. Cultures were kept at 37° C., in 5% CO2, for up to 1 week, at which time the extent of well-defined neurite outgrowth was assessed.
Signaling by the neurotrophins, while mediated by different cell-surface receptors, converges on the extensively studied and well-characterized MAP kinase pathway. […] Therefore, the inventors explored the possibility that GM-284 might signal through NGF directly, or through the MAP kinase cascade. […]

[1] = test system: purified chick sensory neurons (PC12 or SH-SY5Y cells); settings: literature; cited from earlier work
calcineurin = settings: cited from earlier work

Structure (SMILES) | effect of anti-NGF / MEK1 inhibition on GM-284-mediated neurite outgrowth (DRG explants; DRGs cultured in 1 μM GM-284 plus inhibitor) | decrease of NGF-dependent neurite outgrowth (DRG explants; DRGs cultured in NGF plus inhibitor) | neurite outgrowth without other signaling molecules / with sub-threshold NGF [1] | binding to / inhibition of calcineurin (calcineurin)
COc1cccc(-c2cc(=O)c3ccccc3o2)c1N [PD 098059] | no effect | ~40% |  | 
CCC(C)(C)C(=O)C(=O)N1CCC[C@H]1C(=O)OCCCc1cccnc1 [GPI-1046] |  |  | potentiate neurite outgrowth only when co-administered with sub-threshold concentrations of NGF; also recorded: unable to mediate neurite outgrowth in the absence of other signaling molecules | neither bind to, nor inhibit, calcineurin
